Source: ChEMBL document CHEMBL1201862, “PubChem BioAssay data set” (2004)
The source made the active and inactive calls.

tested on: not listed separately; assay: microbe, parasite or virus in culture; assay type: functional; conditions: Mycobacterium tuberculosis

| Structure (SMILES) | CC50 |
| --- | --- |
| CCCCOC(=O)NS(=O)(=O)c1sc(CC(C)C)cc1-c1ccc(Cn2c(CC)nc3c(C)cc(C)nc32)cc1 | 20.3 µM (active) |
| CCCOc1ccc(C(=O)NC(=S)NCc2cccnc2)cc1 | > 40 µM (active) |
| c1ccc2c(c1)CCN(c1nc3cc4c(cc3s1)OCCO4)C2 | > 40 µM (active) |

biological target: T1, Short transient receptor potential channel 4 (Mus musculus, UniProt Q9QUQ5); assay: block of DAMGO-driven TRPC4 calcium entry – cell-based, HEK293 TRPC4/mu-opioid, Fluo-4 calcium, dose response (AID 434942); assay type: functional; conditions: not given;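 also: potency of inhibitors blocking the TRPC4 calcium response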
T1 sequence (Q9QUQ5 whole entry): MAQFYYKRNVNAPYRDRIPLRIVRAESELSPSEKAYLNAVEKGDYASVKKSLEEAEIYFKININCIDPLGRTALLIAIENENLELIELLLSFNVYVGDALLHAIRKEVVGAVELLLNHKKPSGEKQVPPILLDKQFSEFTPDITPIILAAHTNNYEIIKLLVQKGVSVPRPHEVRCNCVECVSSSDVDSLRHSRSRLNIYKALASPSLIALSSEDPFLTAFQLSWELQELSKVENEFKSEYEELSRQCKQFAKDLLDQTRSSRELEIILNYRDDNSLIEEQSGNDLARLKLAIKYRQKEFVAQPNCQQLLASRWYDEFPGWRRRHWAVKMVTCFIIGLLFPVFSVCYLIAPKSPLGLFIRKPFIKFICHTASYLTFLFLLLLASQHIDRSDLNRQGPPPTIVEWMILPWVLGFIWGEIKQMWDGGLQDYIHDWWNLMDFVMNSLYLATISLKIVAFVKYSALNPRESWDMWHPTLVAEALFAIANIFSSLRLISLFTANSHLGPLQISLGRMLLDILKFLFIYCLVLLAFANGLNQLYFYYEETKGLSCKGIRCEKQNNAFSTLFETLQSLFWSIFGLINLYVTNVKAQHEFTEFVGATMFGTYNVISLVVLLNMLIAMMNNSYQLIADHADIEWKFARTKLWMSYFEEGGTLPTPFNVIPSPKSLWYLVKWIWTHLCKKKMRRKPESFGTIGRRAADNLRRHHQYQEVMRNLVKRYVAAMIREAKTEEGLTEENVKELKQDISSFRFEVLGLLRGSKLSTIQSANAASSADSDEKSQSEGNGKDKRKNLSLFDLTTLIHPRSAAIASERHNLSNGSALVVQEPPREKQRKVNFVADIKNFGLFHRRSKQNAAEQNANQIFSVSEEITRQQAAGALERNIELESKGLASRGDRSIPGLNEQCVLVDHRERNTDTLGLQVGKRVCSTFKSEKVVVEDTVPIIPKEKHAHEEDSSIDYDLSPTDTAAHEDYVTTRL

| Structure (SMILES) | EC50 |
| --- | --- |
| COc1ccc(SC[C@H](Cc2ccccc2)N2CCN(C)CCC2=O)cc1 | 1.33 µM (active) |
| CC1CCCN(CCCN2C(=O)C3C(C(=O)Nc4ccc(Cl)cc4)C4C=CC3(O4)C2C(=O)NC2CCCCC2)C1 (stereo unspecified) | 0.335 µM (active) |

biological target: Cytochrome P450 2C19 (Homo sapiens, UniProt P33261); assay: Cytochrome panel assay with activity outcomes. Panel member name: p450-cyp2c19 Compounds with AC50 equal or less than 10 uM are considered active; assay type: functional; conditions: read-out: AC50
Sequence (P33261 whole entry): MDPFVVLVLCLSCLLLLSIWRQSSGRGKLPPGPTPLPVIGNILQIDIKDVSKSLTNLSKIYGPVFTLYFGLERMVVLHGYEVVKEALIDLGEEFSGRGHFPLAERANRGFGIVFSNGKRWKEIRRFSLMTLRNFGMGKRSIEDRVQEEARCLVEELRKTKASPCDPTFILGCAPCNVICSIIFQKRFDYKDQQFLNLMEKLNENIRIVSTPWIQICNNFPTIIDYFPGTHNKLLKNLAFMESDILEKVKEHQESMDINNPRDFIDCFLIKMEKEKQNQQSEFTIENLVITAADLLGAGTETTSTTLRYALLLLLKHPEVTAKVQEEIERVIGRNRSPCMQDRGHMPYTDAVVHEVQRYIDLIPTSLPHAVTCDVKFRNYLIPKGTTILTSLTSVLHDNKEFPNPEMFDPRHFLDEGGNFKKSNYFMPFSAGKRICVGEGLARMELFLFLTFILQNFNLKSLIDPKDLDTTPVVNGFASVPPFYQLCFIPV

| Structure (SMILES) | AC50 |
| --- | --- |
| CCCCOC(=O)NS(=O)(=O)c1sc(CC(C)C)cc1-c1ccc(Cn2c(CC)nc3c(C)cc(C)nc32)cc1 | 15.8 µM (inconclusive) |

biological target: Heat shock protein HSP 90-alpha (Homo sapiens, UniProt P07900); assay: not given; assay type: functional, organism-based; conditions: not given

| Structure (SMILES) | AC50 |
| --- | --- |
| COc1ccc2c(c1)OC[C@H]1[C@H]2N2C(=O)c3cc(OC)ccc3NC(=O)[C@@]2(C)[C@H]1c1ccccc1 | 16.1 µM (active) |

tested on: P388/ADR; assay: cells; assay type: functional; conditions: Mus musculus

| Structure (SMILES) | GI50 |
| --- | --- |
| CC(C)CCCCCCCCCCCCC(=O)NCC(=O)NC1C(C)OC(Nc2ncnc3c2ncn3C)C(O)C1O (stereo unspecified) | > 100 µM (inactive) |
| COc1cc(C2c3cc4c(cc3[C@@H](Nc3ccc(C#N)cc3)C3COC(=O)[C@H]23)OCO4)cc(OC)c1O (stereo partly specified) | 0.352 µM (active) |
| CN1OC(=O)N(C)C1c1ccccc1 (stereo unspecified) | > 100 µM (inactive) |

tested on: SN12K1; assay: cells; assay type: functional; conditions: Homo sapiens

| Structure (SMILES) | GI50 |
| --- | --- |
| CC(C)CCCCCCCCCCCCC(=O)NCC(=O)NC1C(C)OC(Nc2ncnc3c2ncn3C)C(O)C1O (stereo unspecified) | 7.66 µM (inactive) |
| COc1cc(C2c3cc4c(cc3[C@@H](Nc3ccc(C#N)cc3)C3COC(=O)[C@H]23)OCO4)cc(OC)c1O (stereo partly specified) | 0.0736 µM (active) |
| CN1OC(=O)N(C)C1c1ccccc1 (stereo unspecified) | > 100 µM (inactive) |

tested on: P388; assay: cells; assay type: functional; conditions: Mus musculus

| Structure (SMILES) | GI50 |
| --- | --- |
| CC(C)CCCCCCCCCCCCC(=O)NCC(=O)NC1C(C)OC(Nc2ncnc3c2ncn3C)C(O)C1O (stereo unspecified) | 6.03 µM (inactive) |
| COc1cc(C2c3cc4c(cc3[C@@H](Nc3ccc(C#N)cc3)C3COC(=O)[C@H]23)OCO4)cc(OC)c1O (stereo partly specified) | 0.00998 µM (active) |
| CN1OC(=O)N(C)C1c1ccccc1 (stereo unspecified) | > 100 µM (inactive) |

biological target: T2, Fatty acid synthase (Homo sapiens, UniProt P49327); assay: inhibition of human FAS-TE enzyme activity – biochemical, endpoint fluorescence intensity, uHTS hits, dose response (AID 624327); assay type: functional; conditions: not given;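 also: fluorescence from hydrolysis of an O-methyl fluorescein acyl ester substrate by the enzyme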
T2 sequence (P49327 whole entry): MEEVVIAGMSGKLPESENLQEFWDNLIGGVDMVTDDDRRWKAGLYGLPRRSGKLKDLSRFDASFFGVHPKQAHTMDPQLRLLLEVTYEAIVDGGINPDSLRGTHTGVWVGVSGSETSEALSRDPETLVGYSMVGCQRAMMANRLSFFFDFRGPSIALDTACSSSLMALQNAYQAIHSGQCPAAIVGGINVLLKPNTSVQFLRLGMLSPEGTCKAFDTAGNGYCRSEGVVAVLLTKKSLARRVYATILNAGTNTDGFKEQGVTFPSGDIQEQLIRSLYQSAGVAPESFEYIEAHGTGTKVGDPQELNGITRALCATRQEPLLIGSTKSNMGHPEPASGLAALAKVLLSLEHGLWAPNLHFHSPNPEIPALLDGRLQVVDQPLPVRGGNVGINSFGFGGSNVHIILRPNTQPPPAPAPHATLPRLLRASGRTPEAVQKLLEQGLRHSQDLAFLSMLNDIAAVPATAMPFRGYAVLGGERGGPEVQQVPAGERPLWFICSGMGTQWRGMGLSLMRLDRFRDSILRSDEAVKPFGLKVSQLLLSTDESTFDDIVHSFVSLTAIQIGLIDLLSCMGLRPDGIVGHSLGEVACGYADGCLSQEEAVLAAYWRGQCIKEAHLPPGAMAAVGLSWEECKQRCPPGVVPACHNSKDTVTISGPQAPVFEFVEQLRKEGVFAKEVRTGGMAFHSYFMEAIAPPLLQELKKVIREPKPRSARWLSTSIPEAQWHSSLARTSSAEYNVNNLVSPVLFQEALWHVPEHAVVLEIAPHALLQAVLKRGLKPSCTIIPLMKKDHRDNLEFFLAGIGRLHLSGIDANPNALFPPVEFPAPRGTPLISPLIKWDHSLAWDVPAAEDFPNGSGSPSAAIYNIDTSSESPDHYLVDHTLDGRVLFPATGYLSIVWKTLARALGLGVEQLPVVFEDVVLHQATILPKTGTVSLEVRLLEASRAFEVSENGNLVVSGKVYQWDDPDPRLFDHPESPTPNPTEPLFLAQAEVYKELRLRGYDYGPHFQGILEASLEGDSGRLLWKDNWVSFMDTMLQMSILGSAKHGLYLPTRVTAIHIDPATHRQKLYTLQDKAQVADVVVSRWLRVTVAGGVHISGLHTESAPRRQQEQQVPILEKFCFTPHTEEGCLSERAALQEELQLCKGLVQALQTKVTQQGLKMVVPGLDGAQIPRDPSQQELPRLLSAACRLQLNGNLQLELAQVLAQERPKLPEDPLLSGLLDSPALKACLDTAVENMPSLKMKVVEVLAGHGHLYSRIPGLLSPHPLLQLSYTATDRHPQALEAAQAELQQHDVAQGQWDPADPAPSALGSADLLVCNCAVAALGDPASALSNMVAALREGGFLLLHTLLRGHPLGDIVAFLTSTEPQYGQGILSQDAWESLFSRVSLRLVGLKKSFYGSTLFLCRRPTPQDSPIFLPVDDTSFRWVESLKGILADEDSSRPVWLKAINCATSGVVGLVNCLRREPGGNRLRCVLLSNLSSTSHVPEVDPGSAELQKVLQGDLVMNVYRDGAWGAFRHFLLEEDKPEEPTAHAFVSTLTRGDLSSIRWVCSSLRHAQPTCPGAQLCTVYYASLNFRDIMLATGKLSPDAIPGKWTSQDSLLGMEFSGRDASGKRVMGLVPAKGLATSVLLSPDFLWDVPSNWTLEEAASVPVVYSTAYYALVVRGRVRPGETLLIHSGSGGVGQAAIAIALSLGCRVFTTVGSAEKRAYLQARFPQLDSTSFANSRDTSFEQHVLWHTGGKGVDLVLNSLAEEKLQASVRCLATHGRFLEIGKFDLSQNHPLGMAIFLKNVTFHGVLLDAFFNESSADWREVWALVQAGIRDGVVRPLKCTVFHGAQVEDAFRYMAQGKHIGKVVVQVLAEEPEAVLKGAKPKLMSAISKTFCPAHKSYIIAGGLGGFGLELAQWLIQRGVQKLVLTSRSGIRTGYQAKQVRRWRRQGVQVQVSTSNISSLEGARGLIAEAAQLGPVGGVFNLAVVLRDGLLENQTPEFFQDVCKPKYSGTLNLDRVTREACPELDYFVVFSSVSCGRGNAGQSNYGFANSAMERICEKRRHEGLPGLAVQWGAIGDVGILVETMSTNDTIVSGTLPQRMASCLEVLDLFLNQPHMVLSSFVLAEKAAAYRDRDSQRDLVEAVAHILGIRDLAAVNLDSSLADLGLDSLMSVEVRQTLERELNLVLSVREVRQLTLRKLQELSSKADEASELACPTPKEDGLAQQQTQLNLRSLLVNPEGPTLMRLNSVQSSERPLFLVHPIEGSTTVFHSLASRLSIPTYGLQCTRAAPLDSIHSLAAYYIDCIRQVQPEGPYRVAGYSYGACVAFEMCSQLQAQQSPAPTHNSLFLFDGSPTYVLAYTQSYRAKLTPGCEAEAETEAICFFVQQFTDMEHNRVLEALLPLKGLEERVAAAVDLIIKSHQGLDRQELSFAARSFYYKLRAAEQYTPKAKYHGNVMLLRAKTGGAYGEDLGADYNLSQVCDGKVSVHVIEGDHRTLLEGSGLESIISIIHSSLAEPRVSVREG

| Structure (SMILES) | IC50 |
| --- | --- |
| CN(C)C=O.O=C(COc1cccc(Cl)c1)Nc1nc(-c2ccc(S(=O)(=O)N3CCOCC3)cc2)cs1 | 4.49 µM (active) |
| COc1ccc2c(c1)OC[C@H]1[C@H]2N2C(=O)c3cc(OC)ccc3NC(=O)[C@@]2(C)[C@H]1c1ccccc1 | 12.7 µM (active) |
| COc1cccc(NC(=O)c2cc([N+](=O)[O-])ccc2NC(=O)CNCC2CCCO2)c1 (stereo unspecified) | 12.3 µM (active) |
| Cc1cccc(C2Nc3ccccc3C(=O)N2NC(=O)c2ccc([N+](=O)[O-])cc2)n1 (stereo unspecified) | 10.4 µM (active) |
| CCn1cc(C(=O)NCc2ccc(C)cc2)c(=O)c2cc(S(=O)(=O)N(C)C)ccc21 | 11.4 µM (active) |
| CCn1c(SCC(=O)Nc2ncc(C(F)(F)F)cc2Cl)nnc1-c1ccccc1 | 5.96 µM (active) |
| N#Cc1cc2nc(O)c(O)nc2cc1[N+](=O)[O-] | 19.6 µM (active) |

biological target: T2, Fatty acid synthase; assay: inhibition of human FAS-TE enzyme activity – biochemical, kinetic fluorescence intensity, dose response (AID 624326); assay type: functional; conditions: not given;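 also: rate of fluorescence rise from hydrolysis of a fluorogenic O-methyl fluorescein ester substrate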

| Structure (SMILES) | IC50 |
| --- | --- |
| CN(C)C=O.O=C(COc1cccc(Cl)c1)Nc1nc(-c2ccc(S(=O)(=O)N3CCOCC3)cc2)cs1 | 5.53 µM (active) |
| COc1ccc2c(c1)OC[C@H]1[C@H]2N2C(=O)c3cc(OC)ccc3NC(=O)[C@@]2(C)[C@H]1c1ccccc1 | 13.7 µM (active) |
| COc1cccc(NC(=O)c2cc([N+](=O)[O-])ccc2NC(=O)CNCC2CCCO2)c1 (stereo unspecified) | 13.1 µM (active) |
| Cc1cccc(C2Nc3ccccc3C(=O)N2NC(=O)c2ccc([N+](=O)[O-])cc2)n1 (stereo unspecified) | 12.8 µM (active) |
| CCn1cc(C(=O)NCc2ccc(C)cc2)c(=O)c2cc(S(=O)(=O)N(C)C)ccc21 | 11.1 µM (active) |
| CCn1c(SCC(=O)Nc2ncc(C(F)(F)F)cc2Cl)nnc1-c1ccccc1 | 4.08 µM (active) |
| N#Cc1cc2nc(O)c(O)nc2cc1[N+](=O)[O-] | 14.8 µM (active) |

biological target: Cytochrome P450 2D6 (Homo sapiens, UniProt P10635); assay: not given; conditions: not given;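 also: CYP2D6 member of a cytochrome P450 panel assay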
Sequence (P10635 whole entry): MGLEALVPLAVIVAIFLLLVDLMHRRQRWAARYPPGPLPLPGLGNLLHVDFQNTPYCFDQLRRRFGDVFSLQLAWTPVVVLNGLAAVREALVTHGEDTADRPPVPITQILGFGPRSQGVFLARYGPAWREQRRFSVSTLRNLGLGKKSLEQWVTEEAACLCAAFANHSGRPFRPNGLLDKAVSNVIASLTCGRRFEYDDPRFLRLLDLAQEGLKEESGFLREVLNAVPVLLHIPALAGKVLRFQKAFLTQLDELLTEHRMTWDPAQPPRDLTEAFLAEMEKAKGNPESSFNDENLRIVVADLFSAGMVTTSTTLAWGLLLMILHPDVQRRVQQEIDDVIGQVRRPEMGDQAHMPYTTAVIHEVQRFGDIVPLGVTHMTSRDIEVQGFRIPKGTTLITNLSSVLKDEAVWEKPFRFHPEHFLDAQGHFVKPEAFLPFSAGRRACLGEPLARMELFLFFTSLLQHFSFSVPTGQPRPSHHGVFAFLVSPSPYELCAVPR

| Structure (SMILES) | AC50 |
| --- | --- |
| CCCCOC(=O)NS(=O)(=O)c1sc(CC(C)C)cc1-c1ccc(Cn2c(CC)nc3c(C)cc(C)nc32)cc1 | 15.8 µM (inconclusive) |
